Data taken from US8680139B2 (Progenra, priority 2009, dated 2014).

Target: T1, USP7 (Homo sapiens, UniProt Q93009)
T1 construct: full length human USP7 protein; made in house
Assay: USP7, Ub-PLA2 assay
Type: biochemical
Conditions: Ub-PLA2 / NBD C6-HPC fluorescence, 30 minute preincubation; read-out: EC50 for inhibition of USP7
Method: The purpose of this assay is to measure the inhibition of USP7 by various compounds of the invention synthesized according to the above-described methods. […] The vehicle control was 100% (v/v) DMSO. 1.6 μL aliquots of the diluted test compound and controls were dispensed into individual wells in a black walled 96 well plate. […] The data were normalized within a plate relative to the control wells using the equation % inhibition=(100−(((RFUcompound−RFUmean NEM) / (RFUmean DMSO−RFUmean NEM))×100)).

T1 sequence (Q93009 whole entry): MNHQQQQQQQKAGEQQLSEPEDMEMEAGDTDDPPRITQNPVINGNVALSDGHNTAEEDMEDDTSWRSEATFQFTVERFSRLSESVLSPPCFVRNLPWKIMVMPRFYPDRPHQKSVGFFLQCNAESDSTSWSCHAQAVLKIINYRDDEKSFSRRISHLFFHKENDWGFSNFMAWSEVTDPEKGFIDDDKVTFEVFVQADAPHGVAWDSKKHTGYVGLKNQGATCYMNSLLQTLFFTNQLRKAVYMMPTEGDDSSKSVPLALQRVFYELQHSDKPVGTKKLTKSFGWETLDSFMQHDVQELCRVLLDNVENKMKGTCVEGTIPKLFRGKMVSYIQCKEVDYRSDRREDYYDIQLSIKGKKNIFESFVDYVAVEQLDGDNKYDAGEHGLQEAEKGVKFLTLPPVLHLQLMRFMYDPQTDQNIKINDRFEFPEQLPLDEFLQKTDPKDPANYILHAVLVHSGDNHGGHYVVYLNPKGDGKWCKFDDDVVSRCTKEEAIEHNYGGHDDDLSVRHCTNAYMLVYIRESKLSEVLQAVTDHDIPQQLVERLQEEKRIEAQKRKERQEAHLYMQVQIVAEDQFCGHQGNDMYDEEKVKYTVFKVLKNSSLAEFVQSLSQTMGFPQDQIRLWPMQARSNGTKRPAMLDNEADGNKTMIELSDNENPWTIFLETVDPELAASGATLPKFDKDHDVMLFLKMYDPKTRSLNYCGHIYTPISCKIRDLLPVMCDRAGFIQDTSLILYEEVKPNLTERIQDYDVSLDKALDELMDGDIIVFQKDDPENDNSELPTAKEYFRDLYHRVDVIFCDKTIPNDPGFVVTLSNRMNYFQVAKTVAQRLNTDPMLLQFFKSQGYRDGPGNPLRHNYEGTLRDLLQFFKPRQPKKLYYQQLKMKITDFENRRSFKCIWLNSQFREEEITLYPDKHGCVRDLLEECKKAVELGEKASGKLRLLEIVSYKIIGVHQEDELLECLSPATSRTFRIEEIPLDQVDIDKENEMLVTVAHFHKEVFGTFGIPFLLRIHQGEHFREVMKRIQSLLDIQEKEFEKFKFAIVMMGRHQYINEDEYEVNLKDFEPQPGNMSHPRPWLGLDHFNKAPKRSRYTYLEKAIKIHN

EC50	SMILES
1000 to 10000 nM	O=C(NCc1cccc(-c2ccccc2)c1)c1cc([N+](=O)[O-])c(Sc2c(Cl)cncc2Cl)s1 [Example 58, N-([1,1′-biphenyl]-3-ylmethyl)-5-((3,5-dichloropyridin-4-yl)thio)-4-nitrothiophene-2-carboxamide]
1000 to 10000 nM	O=C(NCC(=O)N1CCCC(O)C1)c1cc([N+](=O)[O-])c(Sc2c(Cl)cncc2Cl)s1 (stereo not shown) [Example 212, 5-((3,5-dichloropyridin-4-yl)thio)-N-(2-(3-hydroxypiperidin-1-yl)-2-oxoethyl)-4-nitrothiophene-2-carboxamide]
1000 to 10000 nM	CN1CCN(CCCNC(=O)c2cc([N+](=O)[O-])c(Sc3c(Cl)cncc3Cl)s2)CC1 [Example 65]
≤ 1000 nM	N=C(N)N1CCC(NC(=O)c2cc([N+](=O)[O-])c(Sc3c(Cl)cncc3Cl)s2)CC1 [Example 237, N-(1-carbamimidoylpiperidin-4-yl)-5-((3,5-dichloropyridin-4-yl)thio)-4-nitrothiophene-2-carboxamide]
> 10000 nM	O=C(NCCCN1CCCCC1)c1cc([N+](=O)[O-])c(Sc2ccc(F)cc2F)s1 [Example 267, 5-((2,4-difluorophenyl)thio)-4-nitro-N-(3-(piperidin-1-yl)propyl)thiophene-2-carboxamide]
1000 to 10000 nM	CN1CCN(CCNC(=O)c2cc([N+](=O)[O-])c(Sc3c(Cl)cncc3Cl)s2)CC1 [Example 64, 5-((3,5-dichloropyridin-4-yl)thio)-N-(2-(4-methylpiperazin-1-yl)ethyl)-4-nitrothiophene-2-carboxamide]
≤ 1000 nM	CN1CCCC(NC(=O)c2cc([N+](=O)[O-])c(Sc3c(Cl)cncc3Cl)s2)C1 (stereo not shown) [Example 189, 5-((3,5-dichloropyridin-4-yl)thio)-N-(1-methylpiperidin-3-yl)-4-nitrothiophene-2-carboxamide]
1000 to 10000 nM	O=C(CNC(=O)c1cc([N+](=O)[O-])c(Sc2c(Cl)cncc2Cl)s1)NC1CCCCC1 [Example 220]
1000 to 10000 nM	O=C(NC1C2CC3CC(C2)CC1C3)c1cc([N+](=O)[O-])c(Sc2c(Cl)cncc2Cl)s1 (stereo not shown) [Example 75, N-((1r,3r,5r,7r)-adamantan-2-yl)-5-((3,5-dichloropyridin-4-yl)thio)-4-nitrothiophene-2-carboxamide]
≤ 1000 nM	O=C(NC1CCNCC1)c1cc([N+](=O)[O-])c(Sc2c(Cl)cncc2Cl)s1 [Example 196, 5-((3,5-dichloropyridin-4-yl)thio)-4-nitro-N-(piperidin-4-yl)thiophene-2-carboxamide]
≤ 1000 nM	O=C(NCCCc1ccccn1)c1cc([N+](=O)[O-])c(Sc2c(Cl)cncc2Cl)s1 [Example 115, 5-((3,5-dichloropyridin-4-yl)thio)-4-nitro-N-(3-(pyridin-2-yl)propyl)thiophene-2-carboxamide]
≤ 1000 nM	O=C(NCc1cccc(F)c1)c1cc([N+](=O)[O-])c(Sc2c(Cl)cncc2Cl)s1 [Example 128, 5-((3,5-dichloropyridin-4-yl)thio)-N-(3-fluorobenzyl)-4-nitrothiophene-2-carboxamide]
> 10000 nM	CC(N)c1cc([N+](=O)[O-])c(Sc2ccc(Cl)cc2Cl)s1 (stereo not shown) [Example 27, 1-[5-(2,4-dichlorophenyl)sulfanyl-4-nitro-2-thienyl]ethanamine]
1000 to 10000 nM	O=C(NCCCN1CCCCC1)c1cc([N+](=O)[O-])c(Sc2ccc(Cl)cc2Cl)s1 [Example 249, 5-((2,4-dichlorophenyl)thio)-4-nitro-N-(3-(piperidin-1-yl)propyl)thiophene-2-carboxamide]
1000 to 10000 nM	CC(=O)N1CCC(NC(=O)c2cc([N+](=O)[O-])c(Sc3c(Cl)cncc3Cl)s2)C1 (stereo not shown) [Example 199, N-(1-acetylpyrrolidin-3-yl)-5-((3,5-dichloropyridin-4-yl)thio)-4-nitrothiophene-2-carboxamide]
1000 to 10000 nM	O=C(c1cc([N+](=O)[O-])c(Sc2c(Cl)cncc2Cl)s1)N1CCCC(O)C1 (stereo not shown) [Example 83, (5-((3,5-dichloropyridin-4-yl)thio)-4-nitrothiophen-2-yl)(3-hydroxypiperidin-1-yl)methanone]
≤ 1000 nM	COc1cncc(CNC(=O)c2cc([N+](=O)[O-])c(Sc3c(Cl)cncc3Cl)s2)c1 [Example 239, 5-((3,5-dichloropyridin-4-yl)thio)-N-((5-methoxypyridin-3-yl)methyl)-4-nitrothiophene-2-carboxamide]
1000 to 10000 nM	CN1CCC(NC(=O)c2cc([N+](=O)[O-])c(Sc3c(Cl)c[n+]([O-])cc3Cl)s2)CC1 [Example 242, 3,5-dichloro-4-((5-((1-methylpiperidin-4-yl)carbamoyl)-3-nitrothiophen-2-yl)thio)pyridine 1-oxide]
> 10000 nM	CC(=O)c1cc([N+](=O)[O-])c(Sc2ccncc2Cl)s1 [Example 39, 1-[5-[(3-chloro-4-pyridyl)sulfanyl]-4-nitro-2-thienyl]ethanone]

EC50	SMILES
1000 to 10000 nM	CN1CCC(NC(=O)Nc2cc([N+](=O)[O-])c(Sc3c(Cl)cncc3Cl)s2)CC1 [Example 270, 1-(5-((3,5-dichloropyridin-4-yl)thio)-4-nitrothiophen-2-yl)-3-(1-methylpiperidin-4-yl)urea]
1000 to 10000 nM	CN1CCN(C(=O)CNC(=O)c2cc([N+](=O)[O-])c(Sc3c(Cl)cncc3Cl)s2)CC1 [Example 218, 5-((3,5-dichloropyridin-4-yl)thio)-N-(2-(4-methylpiperazin-1-yl)-2-oxoethyl)-4-nitrothiophene-2-carboxamide]
> 10000 nM	CC(=O)c1cc([N+](=O)[O-])c(Sc2nccs2)s1 [Example 14, 1-(4-nitro-5-thiazol-2-ylsulfanyl-2-thienyl)ethanone]
> 10000 nM	CC(=O)c1cc([N+](=O)[O-])c(Sc2ccc(-c3ccccc3)cc2)s1 [Example 16, 1-[4-nitro-5-(4-phenylphenyl)sulfanyl-2-thienyl]ethanone]
≤ 1000 nM	O=C(NCCN1CCN(Cc2ccccc2)CC1)c1cc([N+](=O)[O-])c(Sc2c(Cl)cncc2Cl)s1 [Example 117, N-(2-(4-benzylpiperazin-1-yl)ethyl)-5-((3,5-dichloropyridin-4-yl)thio)-4-nitrothiophene-2-carboxamide]
≤ 1000 nM	NC(=O)C1CCN(CCCNC(=O)c2cc([N+](=O)[O-])c(Sc3c(Cl)cncc3Cl)s2)CC1 [Example 226, 1-(3-(5-((3,5-dichloropyridin-4-yl)thio)-4-nitrothiophene-2-carboxamido)propyl)piperidine-4-carboxamide]
≤ 1000 nM	O=C(NCc1ccc(Cl)cc1)c1cc([N+](=O)[O-])c(Sc2c(Cl)cncc2Cl)s1 [Example 106, N-(4-chlorobenzyl)-5-((3,5-dichloropyridin-4-yl)thio)-4-nitrothiophene-2-carboxamide]
≤ 1000 nM	CN(C)CCCOc1cccc(CNC(=O)c2cc([N+](=O)[O-])c(Sc3c(Cl)cncc3Cl)s2)c1 [Example 126, 5-[(3,5-dichloro-4-pyridyl)sulfanyl]-N-[[3-(3-dimethylaminopropoxy)phenyl]methyl]-4-nitro-thiophene-2-carboxamide]
≤ 1000 nM	COc1cccc(CNC(=O)c2cc([N+](=O)[O-])c(Sc3c(Cl)cncc3Cl)s2)c1OC [Example 97, 5-((3,5-dichloropyridin-4-yl)thio)-N-(2,3-dimethoxybenzyl)-4-nitrothiophene-2-carboxamide]
1000 to 10000 nM	COC(=O)c1cc([N+](=O)[O-])c(Sc2c(Cl)cncc2Cl)s1 [Example 43, Methyl 5-[(3,5-dichloro-4-pyridyl)sulfanyl]-4-nitro-thiophene-2-carboxylate]
≤ 1000 nM	O=C(Nc1ccc(F)cc1C(F)(F)F)c1cc([N+](=O)[O-])c(Sc2c(Cl)cncc2Cl)s1 [Example 139, 5-((3,5-dichloropyridin-4-yl)thio)-N-(4-fluoro-2-(trifluoromethyl)phenyl)-4-nitrothiophene-2-carboxamide]
1000 to 10000 nM	Cc1nc(NC(=O)c2cc([N+](=O)[O-])c(Sc3c(Cl)cncc3Cl)s2)sc1C [Example 88, 5-((3,5-dichloropyridin-4-yl)thio)-N-(4,5-dimethylthiazol-2-yl)-4-nitrothiophene-2-carboxamide]
1000 to 10000 nM	CN(C)CCNC(=O)CNC(=O)c1cc([N+](=O)[O-])c(Sc2c(Cl)cncc2Cl)s1 [Example 217, 5-((3,5-dichloropyridin-4-yl)thio)-N-(2-((2-(dimethylamino)ethyl)amino)-2-oxoethyl)-4-nitrothiophene-2-carboxamide]
1000 to 10000 nM	COCCCNC(=O)CNC(=O)c1cc([N+](=O)[O-])c(Sc2c(Cl)cncc2Cl)s1 [Example 213, 5-((3,5-dichloropyridin-4-yl)thio)-N-(2-((3-methoxypropyl)amino)-2-oxoethyl)-4-nitrothiophene-2-carboxamide]
1000 to 10000 nM	O=C(NC1CCN(C2CC2)C1)c1cc([N+](=O)[O-])c(Sc2c(Cl)cncc2Cl)s1 (stereo not shown) [Example 198, N-(1-cyclopropylpyrrolidin-3-yl)-5-((3,5-dichloropyridin-4-yl)thio)-4-nitrothiophene-2-carboxamide]
≤ 1000 nM	COc1ccc(NC(=O)c2cc([N+](=O)[O-])c(Sc3c(Cl)cncc3Cl)s2)cc1OC [Example 170, 5-((3,5-dichloropyridin-4-yl)thio)-4-nitro-N-(3,4-dimethoxyphenyl)thiophene-2-carboxamide]
1000 to 10000 nM	CN(C)C1CCN(CCCNC(=O)c2cc([N+](=O)[O-])c(Sc3c(Cl)cncc3Cl)s2)CC1 [Example 224, 5-((3,5-dichloropyridin-4-yl)thio)-N-(3-(4-(dimethylamino)piperidin-1-yl)propyl)-4-nitrothiophene-2-carboxamide]
1000 to 10000 nM	O=C(NCc1ccc2c(c1)CCO2)c1cc([N+](=O)[O-])c(Sc2c(Cl)cncc2Cl)s1 [Example 70, 5-((3,5-dichloropyridin-4-yl)thio)-N-((2,3-dihydrobenzofuran-5-yl)methyl)-4-nitrothiophene-2-carboxamide]
